# Data published in ChEMBL document CHEMBL1201862, “PubChem BioAssay data set” (2004).
# The source made the active and inactive calls.
# Assays:
# [1] = molecular target: Potassium voltage-gated channel subfamily KQT member 2 (Rattus norvegicus, UniProt O88943, W236L); assay: KCNQ2 channel potentiators, dose response, mechanism study for KCNQ2 potentiator project, cell-based, automated electrophysiology (AID 2603); assay type: functional
# [2] = molecular target: T1, Long-chain-fatty-acid--AMP ligase FadD28 (Mycobacterium tuberculosis, UniProt P9WQ59); assay: Fluorescence polarization aasay to screen for inhibitors that compete for the binding of FadD28 to a bisubstrate Measured in Biochemical System Using Plate Reader - 2147-01_Inhibitor_Dose_CherryPick_Activity.; assay type: functional, Mycobacterium tuberculosis H37Rv
# T1 sequence (P9WQ59 whole entry): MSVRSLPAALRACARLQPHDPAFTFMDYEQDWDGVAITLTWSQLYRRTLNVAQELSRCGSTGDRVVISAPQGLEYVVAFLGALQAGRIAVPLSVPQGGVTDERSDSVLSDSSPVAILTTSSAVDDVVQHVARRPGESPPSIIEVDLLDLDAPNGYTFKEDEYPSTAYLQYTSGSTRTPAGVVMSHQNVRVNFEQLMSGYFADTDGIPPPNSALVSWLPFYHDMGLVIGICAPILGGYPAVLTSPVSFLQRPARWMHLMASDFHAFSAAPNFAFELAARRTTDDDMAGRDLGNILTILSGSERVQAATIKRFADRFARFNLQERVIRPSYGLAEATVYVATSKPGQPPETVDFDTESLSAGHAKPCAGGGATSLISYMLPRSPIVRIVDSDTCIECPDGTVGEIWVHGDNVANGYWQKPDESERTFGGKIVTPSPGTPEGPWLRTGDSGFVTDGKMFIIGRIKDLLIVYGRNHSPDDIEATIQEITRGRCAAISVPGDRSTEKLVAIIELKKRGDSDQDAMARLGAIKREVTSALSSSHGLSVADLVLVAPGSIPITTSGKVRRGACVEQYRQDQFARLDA
# [3] = A High Throughput Confirmatory Assay used to Identify Novel Compounds that Inhibit Mycobacterium Tuberculosis in the absence of Glycerol.; assay type: functional
# [4] = microbe, parasite or virus in culture; assay type: functional; settings: Mycobacterium tuberculosis
# [5] = HEp-2 cell cytotoxicity, dose response, cytotoxicity control for RSV inhibitor project, HTS (AID 2410); assay type: functional; settings: human respiratory syncytial virus
# Vero = assay: West Nile virus antiviral activity, cell-based, CPE readout (AID 1621); assay type: functional; settings: Chlorocebus sabaeus
# [6] = cytotoxicity in HEK-293T cells, dose response, cytotoxicity control for TCR NF-kB inhibitor project, luminescence, T-cell screen hits (AID 489026); assay type: functional, cell-based;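 further: cells exposed to compound about 14 hours before the viability readout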
# [7] = molecular target: Protein-tyrosine kinase 2-beta (Homo sapiens, UniProt Q14289);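 further: potency of inhibitors of PYK2 kinase phosphorylation of poly-GT substrate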
# Danio rerio = assay: In Vivo Angiogenesis Dose-Response Confirmation. [Related pubchem assays: 732 (Assay preceding this confirmatory assay.)]; assay type: functional, organism-based
# [8] = molecular target: Transitional endoplasmic reticulum ATPase (Homo sapiens, UniProt P55072, C522A); assay: Luminescence counterscreen assay for p97 inhibitors: dose response biochemical high throughput screening assay to identify inhibitors of the C522A mutant p97 ATPase: synthesized compounds. [Related pubchem assays: 1481, 1517, 1551 ]
# [9] = molecular target: Transitional endoplasmic reticulum ATPase (Homo sapiens, UniProt P55072); assay: Luminescence dose response biochemical high throughput screening assay for inhibitors of the p97 ATPase: synthesized compounds. [Related pubchem assays: 1481, 1517 ]
# Chain of Transitional endoplasmic reticulum ATPase (Homo sapiens, UniProt P55072) (P55072 whole entry): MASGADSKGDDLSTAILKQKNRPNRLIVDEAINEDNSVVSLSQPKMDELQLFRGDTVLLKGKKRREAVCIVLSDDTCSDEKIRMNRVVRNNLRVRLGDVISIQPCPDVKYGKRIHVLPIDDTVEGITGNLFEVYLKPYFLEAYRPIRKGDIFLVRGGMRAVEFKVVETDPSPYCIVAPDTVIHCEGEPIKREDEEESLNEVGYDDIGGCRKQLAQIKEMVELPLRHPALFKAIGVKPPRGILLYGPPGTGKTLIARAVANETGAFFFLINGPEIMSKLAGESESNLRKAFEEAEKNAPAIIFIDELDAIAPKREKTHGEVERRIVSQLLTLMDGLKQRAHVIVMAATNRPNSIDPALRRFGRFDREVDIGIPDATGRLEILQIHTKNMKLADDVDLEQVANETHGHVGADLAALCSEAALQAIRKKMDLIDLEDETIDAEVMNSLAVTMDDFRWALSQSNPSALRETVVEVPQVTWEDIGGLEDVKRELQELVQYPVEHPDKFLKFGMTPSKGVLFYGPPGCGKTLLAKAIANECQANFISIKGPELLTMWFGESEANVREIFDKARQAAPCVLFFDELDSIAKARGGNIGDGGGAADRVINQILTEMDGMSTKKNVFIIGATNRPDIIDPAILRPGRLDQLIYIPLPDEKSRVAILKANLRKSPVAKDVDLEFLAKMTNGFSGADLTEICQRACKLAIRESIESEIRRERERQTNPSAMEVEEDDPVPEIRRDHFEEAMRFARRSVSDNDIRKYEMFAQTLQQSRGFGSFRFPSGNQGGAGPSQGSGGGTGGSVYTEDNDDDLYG
# Chain of Transitional endoplasmic reticulum ATPase (Homo sapiens, UniProt P55072, C522A) (P55072 2-806 C522A limits assumed): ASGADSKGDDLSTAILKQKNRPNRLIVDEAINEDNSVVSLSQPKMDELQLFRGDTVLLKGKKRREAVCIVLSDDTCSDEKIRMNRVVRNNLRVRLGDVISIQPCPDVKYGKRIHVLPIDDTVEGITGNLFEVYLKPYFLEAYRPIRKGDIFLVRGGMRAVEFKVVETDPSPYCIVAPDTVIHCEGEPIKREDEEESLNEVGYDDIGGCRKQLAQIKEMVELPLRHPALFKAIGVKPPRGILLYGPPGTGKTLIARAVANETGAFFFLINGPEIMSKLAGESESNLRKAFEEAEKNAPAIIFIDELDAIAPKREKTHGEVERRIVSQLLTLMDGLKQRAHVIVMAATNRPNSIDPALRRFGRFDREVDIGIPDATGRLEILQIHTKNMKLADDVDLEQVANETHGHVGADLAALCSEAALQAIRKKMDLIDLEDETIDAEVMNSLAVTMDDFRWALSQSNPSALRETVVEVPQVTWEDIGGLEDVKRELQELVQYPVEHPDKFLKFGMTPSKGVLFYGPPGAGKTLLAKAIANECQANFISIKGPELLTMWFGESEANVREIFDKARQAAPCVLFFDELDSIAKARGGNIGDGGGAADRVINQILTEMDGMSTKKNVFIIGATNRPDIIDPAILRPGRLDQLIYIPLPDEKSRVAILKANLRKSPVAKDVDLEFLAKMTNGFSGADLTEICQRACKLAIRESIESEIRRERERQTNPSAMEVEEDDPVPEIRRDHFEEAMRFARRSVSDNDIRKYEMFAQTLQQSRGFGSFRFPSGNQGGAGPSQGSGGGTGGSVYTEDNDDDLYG
# Chain of Protein-tyrosine kinase 2-beta (Q14289 whole entry): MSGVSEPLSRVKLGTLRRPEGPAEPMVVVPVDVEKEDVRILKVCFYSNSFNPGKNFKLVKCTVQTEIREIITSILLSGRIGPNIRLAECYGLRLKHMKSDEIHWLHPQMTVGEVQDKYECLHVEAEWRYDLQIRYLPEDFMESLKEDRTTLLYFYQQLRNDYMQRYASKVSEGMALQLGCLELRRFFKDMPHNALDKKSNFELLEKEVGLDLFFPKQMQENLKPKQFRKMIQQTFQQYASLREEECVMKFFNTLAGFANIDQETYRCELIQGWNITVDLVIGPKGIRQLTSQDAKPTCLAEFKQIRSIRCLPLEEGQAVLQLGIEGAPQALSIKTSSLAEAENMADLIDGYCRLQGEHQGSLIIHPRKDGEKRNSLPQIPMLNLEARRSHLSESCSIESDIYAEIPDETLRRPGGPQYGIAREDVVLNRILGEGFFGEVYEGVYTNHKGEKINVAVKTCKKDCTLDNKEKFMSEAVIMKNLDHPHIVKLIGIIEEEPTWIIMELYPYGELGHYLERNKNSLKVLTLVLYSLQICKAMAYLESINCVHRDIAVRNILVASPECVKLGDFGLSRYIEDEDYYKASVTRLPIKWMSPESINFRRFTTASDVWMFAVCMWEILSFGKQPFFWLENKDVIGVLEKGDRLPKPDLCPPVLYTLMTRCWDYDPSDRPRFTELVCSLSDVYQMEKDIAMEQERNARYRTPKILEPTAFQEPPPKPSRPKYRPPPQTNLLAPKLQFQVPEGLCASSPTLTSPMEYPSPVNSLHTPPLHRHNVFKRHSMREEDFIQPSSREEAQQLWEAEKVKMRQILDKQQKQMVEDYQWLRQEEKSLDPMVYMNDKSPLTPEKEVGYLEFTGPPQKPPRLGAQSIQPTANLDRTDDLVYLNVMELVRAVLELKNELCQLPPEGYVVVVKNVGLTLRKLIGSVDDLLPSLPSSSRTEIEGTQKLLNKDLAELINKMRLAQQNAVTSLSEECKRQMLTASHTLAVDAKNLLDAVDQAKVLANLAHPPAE
# Chain of Potassium voltage-gated channel subfamily KQT member 2 (O88943 whole entry W236L): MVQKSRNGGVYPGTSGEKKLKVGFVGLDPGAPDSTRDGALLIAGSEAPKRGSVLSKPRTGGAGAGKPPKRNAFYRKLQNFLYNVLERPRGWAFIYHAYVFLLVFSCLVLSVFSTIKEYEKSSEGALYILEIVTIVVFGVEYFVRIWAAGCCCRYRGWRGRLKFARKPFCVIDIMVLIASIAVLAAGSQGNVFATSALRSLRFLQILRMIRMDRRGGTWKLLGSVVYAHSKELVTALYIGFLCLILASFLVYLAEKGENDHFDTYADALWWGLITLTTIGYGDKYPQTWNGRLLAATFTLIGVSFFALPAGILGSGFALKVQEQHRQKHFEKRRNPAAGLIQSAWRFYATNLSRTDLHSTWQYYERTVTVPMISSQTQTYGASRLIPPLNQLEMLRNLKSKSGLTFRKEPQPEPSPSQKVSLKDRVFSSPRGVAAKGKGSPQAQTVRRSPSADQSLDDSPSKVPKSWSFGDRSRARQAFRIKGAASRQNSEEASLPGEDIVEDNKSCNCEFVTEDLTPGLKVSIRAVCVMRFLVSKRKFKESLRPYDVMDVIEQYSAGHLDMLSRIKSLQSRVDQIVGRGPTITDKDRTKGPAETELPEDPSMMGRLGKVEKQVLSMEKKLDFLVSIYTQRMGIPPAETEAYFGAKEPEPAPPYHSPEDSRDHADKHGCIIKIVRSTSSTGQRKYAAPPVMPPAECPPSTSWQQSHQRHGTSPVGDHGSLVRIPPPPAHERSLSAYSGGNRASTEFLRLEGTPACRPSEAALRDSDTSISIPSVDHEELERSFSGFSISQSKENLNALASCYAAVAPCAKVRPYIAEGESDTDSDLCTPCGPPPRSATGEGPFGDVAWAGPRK
compound,measurement,setting,value
CC(C)n1c(O)c(N=Nc2ccc(Cl)c(C(=O)O)c2)c2ccccc21,EC50,[1],3.7 µM (active)
same,AC50,[2],35.7 µM (active)
C#CCOc1ccc2c(c1)c(C(C)=O)c(C)n2Cc1ccccc1,IC50,[3],> 100 µM (active)
same,CC50,[4],> 40 µM (active)
CC(C)c1oc(=O)cc2c1[C@@H](O)[C@H]1OC(=O)[C@@]3(C)CC[C@@H](O)[C@@]2(C)C13 (some centres not stated),CC50,[5],10.4 µM (active)
same,IC50,Vero,17.4 µM (active)
same,IC50,[6],> 80 µM (inactive)
same,IC50,cells,12.2 µM (active)
Clc1ccc2[nH]cc(-c3nnnn3-c3ccccc3)c2c1,IC50,[7],> 69.5 µM (not active)
O=C1Nc2ccc(F)cc2/C1=C1/Nc2ccc(Br)cc2/C1=N\O,IC50,Danio rerio,0.29 µM (not active)
CCOC(=O)/C(C#N)=C/c1c[nH]c2ccc(C#N)cc12,IC50,[8],> 50 µM (not active)
same,IC50,[9],> 50 µM (not active)
